How the values were obtained:
Jurkat T cells = assay: Cells' ability to retain the reduced forms (DTNB efflux assay), Jurkat T cells; assay type: cell-based; conditions: 0.1 mM LA or LA-PLUS, FIG. 6A
Procedure: (§1) Jurkat T cells or neuronal HT4 cells were incubated with LA (0.1 mM) or LA-PLUS (0.1 mM). The medium of the cells was replaced by phosphate buffer saline that contained 250 uM of 5,5′-dithiobis-(2-nitrobenzoic acid) (DTNB). The free thiols in the medium were trapped by the DTNB and absorption was measured at 420 nm at different time intervals.
(§2) The efflux of DHLA and DHLA-PLUS from cells was measured in the medium of cells in culture. The medium was composed of PBS and DTNB. […] An illustration of how LA-PLUS crosses biological barriers such as membranes (also showing retention of DHLA-PLUS inside the cell) is given in FIG. 7.

HT4 neuronal cells = assay: Cells' ability to retain the reduced forms (DTNB efflux assay), HT4 neuronal cells; assay type: cell-based, mouse; conditions: 0.1 mM LA or LA-PLUS, FIG. 6B
Procedure: as §1, §2

HT4 cells [1] = assay: Flow cytometric assay of fragmented DNA (glutamate-induced apoptosis); assay type: cell-based, mouse; conditions: 10 mM glutamate, 24 h, FIG. 1
Procedure: (§3) HT-4 cells (mouse hippocampal cell line) were purchased from American Type Culture Collection (ATCC, Bethesda, Md.). All experiments reported here were carried out with 10 mM glutamate.
(§4) HT4 cells were grown in DMEM supplemented with 10% serum and 100 U/ml penicillin-streptomycin at 37° C. in a humidified atmosphere containing 95% air/5% CO2.
(§5) All experiments were performed under the following protocol. Cells were allowed to grow to confluency, were trypsinized and subcultured in culture dishes at a concentration of 375,000 cells per millititer. The cells were continually cultured at 37° C. and were allowed to grow for 24 h, and then were exposed to glutamate treatment.
HT4 cells were exposed to 10 mM glutamate for 24 h with and without antioxidants. […] The permeablized cells were kept in the dark for 6 h at 4° C. and their DNA integrity was analyzed using a flow cytometer (XL, Coulter, FL) with argon-ion laser (excitation 488 nm) and the 575 nm emission was recorded in fluorescence channel 1 (FL1). […]
The pathway of cell death was explored by staining the cells for 6 h following the glutamate treatment with a DNA-binding fluorescent dye, propidum iodide (PI) in cells permeabilised with a low concentration of detergent (Triton X-100 0.1% w/v). […] The cells were analyzed by flow cytometry.

ICAM-1 = assay: PMA-induced ICAM-1 expression in ECV endothelial cells (flow cytometry); assay type: cell-based, human; conditions: same concentration; 20 nM PMA, 24 h; FIG. 3
Procedure: EV304 (ECV), a spontaneously transformed immortal human endothelial cell line established from the vein of an apparently normal human umbilical cord, were obtained from ATCC (Bethesda, Md.). ECV cells were grown in medium 199 supplemented with 10% fetal calf serum, 100 U/ml penicillin and 100 μg/ml streptomycin. Cells were maintained in a standard culture incubator with humidified air containing 5% CO2 at 37° C. ECV monolayers were pretreated with LA or LA-PLUS for the time period indicated in the respective figure legend. Following the pretreatment, cells were activated using 20 nM PMA for 24 h. […] Appropriate isotypic controls were used for background fluorescence in the ICAM-1 assay. The fluorescence and light scattering properties (forward scatter, FS; side scatter, SS) of the cells were determined by using an EPICS-Elite (Coulter, Miami, Fla.) flow cytometer. Cells with FITC-conjugated antibodies were excited using a 488 nm argon ion laser and emission of FTIC was recorded at 525 nm. […] A logarithmic scale was used to measure both background and endothelial cell fluorescence. Background fluorescence was then subtracted from endothelial cell fluorescence, allowing linear comparisons of ICAM-1 expression between various samples.

HT4 cells [2] = assay: Cell viability by LDH leakage after glutamate treatment; assay type: cell-based, mouse; conditions: 10 mM glutamate, FIG. 2
Procedure: as §3, §4, §5
Cell viability was assayed using lactate dehydrogenase (LDH) leakage. After completion of the experiments, culture medium was removed from plates and centrifuged (500 g×5 min). The cells that detached from the monolayer following glutamate treatment were separated by centrifugation of the growth medium. […] LDH activity was measured from the samples spectophotometrically within two days of storage. Cell viability was determined using the following formula: viability=attached cell LDH activity/total LDH activity (medium+detached cell LDH activity+attached cell LDH activity).

L6 myoblasts = assay: Glucose uptake by L6 rat muscle derived cells; assay type: cell-based; conditions: 1 h pretreatment; FIG. 4
Procedure: L6 cells were obtained from American Type Culture Collection (MD). Dulbecco's Phosphate Buffered Saline (DPBS) and Dulbecco's Modified Eagle Medium (DMEM) supplemented with high glucose, L-glutamine, pyridoxine hydrochloride and 110 mg/l sodium pyruvate were obtained from GIBCO BRL (Life Technologies NY). Fetal calf serum (FCS) and other reagents for the culture medium were obtained from the cell culture facility of the University of California-San Francisco. Undifferentiated mononucleated cells (myoblasts) were used in this study. For experiments, cells were seeded at a concentration of 0.2×10^6 cells per well in 6-well flat bottom tissue culture treated polystyrene plates (FALCON, Becton Dickinson Labware, NJ). Cultures were grown in DMEM supplemented with 10% FCS, 5 mM glutamine, 0.3% D-glucose, 50 U/ml of penicillin, and […] of streptomycin, in humidified air containing 5% CO2 at 37° C. Cell viability was greater than 97% as estimated by trypan blue exclusion or propidium iodide staining. The cells were split once every third day. All experiments were carried out on cells (6th to 12th passage) in the third day of the last passage. Cells seeded in 6-well plates were washed thrice with 1 ml transport suffer (140 mM NaCl, 5 mM KCl, 2.5 mM MgCl2, 1 mM CaCl2 in 20 mN tris-HEPES, pH 7.4) at room temperature. […] Radioactivity in each sample was read using a scintillation counter.

For O=C(O)CCCC[C@@H](S)CCS (racemic) [DHLA, dihydrolipoate], the “efflux of reduced form from cells / retention inside cells” value (Jurkat T cells) was “effluxed from the cell faster than DHLA-PLUS” and the “efflux of reduced form from cells / retention inside cells” value (HT4 neuronal cells) was “effluxed from the cell faster than DHLA-PLUS”.

In the case of CN(C)CCNC(=O)CCCCC1CCSS1.Cl (centres unmarked) [LA-PLUS, N,N-Dimethyl-N-2-Amidoethyl Lipoate (HCl)], the “glutamate-induced apoptotic process (cell shrinkage, DNA fragmentation)” value (HT4 cells [1]; 50 μM compound) is reported as “completely blocked”, the “anti-apoptotic effect compared to LA” value (HT4 cells [1]) is reported as “much more pronounced compared to the effect of LA” and the “down-regulation of PMA induced ICAM-1 expression compared to LA” value (ICAM-1) is reported as “much more effectively down-regulated”. For the same molecule, the “efficiency in protecting HT4 cells compared to lipoic acid” value (HT4 cells [2]) was “more efficient in protecting the HT4 cells than lipoic acid” and the “enhancement of glucose uptake compared to LA” value (L6 myoblasts) was “clearly more effective than LA”.

O=C(O)CCCCC1CCSS1 (centres unmarked) [LA, 1,2-dithiolane-3-pentanoic acid, reference compound] was tested, and the “protection of HT4 cells against glutamate cytotoxicity (viability)” value (HT4 cells [2]; 100 μM compound) was “did not provide total protection”.

Source: patent US6387945B2, “Lipoic acid analogs” (The Regents of the University of California, priority 2000, dated 2002)
